Data: paper PMC12449476, “Transient ligand contacts of the intrinsically disordered N-terminus of neuropeptide Y2 receptor regulate arrestin-3 recruitment” (Nature Communications, 2025)

Experiments:
[1] = tested on: bicelle-reconstituted full-length cysteine-deficient Y2R; experiment: XL-MS competition experiment; format: binding, human; details: 50 × molar excess competitor
Method: (§1) Samples were denatured in 10% SDS, 100 mM Tris-HCl (pH 7.5) and subjected to S-Trap enrichment (Protifi, Fairport, NY, USA). Afterwards, proteins were reduced, alkylated, and enzymatically digested with AspN and trypsin according to an existing protocol. Samples were stored at − 20 °C before LC-MS analysis.

[2] = biological target: T1, WT Nluc-Y2R-eYFP (Homo sapiens, UniProt P49146); details: small molecule antagonist vs labeled NPY; cited from earlier work
T1 construct: expressed in transfected cells; host or cells: membrane preparations of transiently transfected HEK293
T1 sequence (P49146 1-381): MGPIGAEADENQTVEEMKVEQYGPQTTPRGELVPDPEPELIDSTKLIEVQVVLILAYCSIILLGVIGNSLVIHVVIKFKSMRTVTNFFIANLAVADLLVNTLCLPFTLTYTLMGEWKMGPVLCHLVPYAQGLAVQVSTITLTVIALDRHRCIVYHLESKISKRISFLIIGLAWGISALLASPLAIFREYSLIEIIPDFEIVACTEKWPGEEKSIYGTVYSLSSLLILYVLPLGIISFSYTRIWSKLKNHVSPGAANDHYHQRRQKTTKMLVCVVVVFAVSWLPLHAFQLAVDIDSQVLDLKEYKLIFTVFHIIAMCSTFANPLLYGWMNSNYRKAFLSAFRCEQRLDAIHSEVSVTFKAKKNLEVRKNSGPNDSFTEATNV
Excerpt: In the following, we are addressing the Reviewer’s comments point‐by‐point. We quote statements from the Reviewer in bold face. We refer to changes made in the manuscript in yellow italics. Reviewer #1 (Remarks to the Author): In this work ...

[3] = tested on: bicelle-reconstituted full-length cysteine-deficient Y2R; experiment: XL-MS with full-length Y2R; format: binding, human; details: LC-TIMS-MS/MS
Method: as §1
Peptide mixtures were reconstituted in an aqueous solution of 3% (v/v) ACN and 0.05% (v/v) TFA prior to LC-TIMS-MS/MS analysis on an UltiMate 3000 RSLC nano-HPLC system (Thermo Fisher Scientific, Waltham, MA, USA) coupled to a timsTOF Pro mass spectrometer (Bruker Daltonics, Bremen, Germany). Peptides were trapped and desalted on a C18 precolumn (Acclaim PepMap 100, 300 μm × 5 mm, 5 μm, 100 Å, Thermo Fisher Scientific, Waltham, MA, USA) with aqueous 0.1 % (v/v) TFA at a flow rate of 30 μL/min (precolumn temperature 50 °C). Using a flow of 300 nL/min, peptide mixtures were then eluted and separated on a self-packed Picofrit C18 column, 75 µm ID x 40 cm, Tip ID 15 µm (New Objective, Littleton, MA, USA), packed with Reprosil-Pur 120 C18-AQ, 3 µm, 120 Å material (Dr. Maisch GmbH, Ammerbuch, Germany) or a µPAC 50 C18 column (PharmaFluidics, Thermo Fisher Scientific, Germany). Linear gradients were from 3% to 50% B over 90 min, 50% to 85% B (over 5 min) and 85% B (5 min); solvent A: water containing 0.1% (v/v) formic acid and solvent B: acetonitrile containing 0.1% (v/v) formic acid, the separation column was kept at 40 °C. To align results obtained with different chromatographic conditions, unmodified peptides were used as indexed retention time (iRT) standards.
Identification of cross-links was performed by a MeroX (v. 2.0.1.7, ref. [77]) search against a fasta file containing the amino acid sequences of triply diazirine-substituted [L17pL, L24pL, L30pL] […] The following settings were employed: semi-specific proteolytic cleavage: C-terminal at Lys and ArgR and N-terminal at Asp and Glu with up to 3 missed cleavages for each site and a maximum of 5 missed cleavages per peptide; peptide length of 4–25 amino acids; fixed modifications: carbamidomethylation of Cys; variable modifications: oxidation of Met; precursor and fragment mass tolerances were set to 10 ppm. […] Two searches were performed per data set, considering photo-leucine reactivity towards (i) only the acidic amino acids Asp and Glu and the protein C-terminus and (ii) reactivity towards all 20 amino acids. Peptide spectral matches were initially filtered to a 10% intensity score, a minimum score cut-off of 30 and 1% FDR (false discovery rate). Lenient FDR filters were compensated by manual validation of all proposed cross-links. In addition, DDA-PASEF data were analyzed with Skyline[78] as described recently. […]

[4] = tested on: photo-NPY; experiment: XL-MS, intramolecular NPY cross-links; format: binding; details: detected in N-term peptide experiment only
Method: as §1
Peptide mixtures were reconstituted in an aqueous solution of 3% (v/v) ACN and 0.05% (v/v) TFA prior to LC-TIMS-MS/MS analysis on an UltiMate 3000 RSLC nano-HPLC system (Thermo Fisher Scientific, Waltham, MA, USA) coupled to a timsTOF Pro mass spectrometer (Bruker Daltonics, Bremen, Germany). Peptides were trapped and desalted on a C18 precolumn (Acclaim PepMap 100, 300 μm × 5 mm, 5 μm, 100 Å, Thermo Fisher Scientific, Waltham, MA, USA) with aqueous 0.1 % (v/v) TFA at a flow rate of 30 μL/min (precolumn temperature 50 °C). […]
Identification of cross-links was performed by a MeroX (v. 2.0.1.7, ref. [77]) search against a fasta file containing the amino acid sequences of triply diazirine-substituted [L17pL, L24pL, L30pL] […] In addition, DDA-PASEF data were analyzed with Skyline[78] as described recently. […]

Number of peptide-receptor cross-links ([3]; total) | Compound | Effect of excess unlabeled ligand on cross-links [1] | Blocking of high- and low-affinity binding [2] | Number of contact points to Y2R NT [3] | Number of contacts to ECL2 [3] | Number of cross-links to extracellular regions of Y2R [3] | Intra-NPY cross-linked positions [4]
 | CCN(CC)C(=O)C(c1ccccc1)N1CCN(c2ccc(NC(=O)c3ccccc3-c3cccnc3)cc2F)CC1 (stereo not shown) [JNJ-31020028, N-(4-{4-[2-(diethylamino)-2-oxo-1-phenylethyl]piperazin-1-yl}-3-fluorophenyl)-2-pyridin-3-ylbenzamide] | essentially abolished all cross-links | can be blocked |  |  |  | 
40 | photo-NPY: triply diazirine-substituted photo-leucine [L17pL, L24pL, L30pL] NPY variant |  |  | 16 | three | 34 | pL30 & D6
